Data reported in US9777010B2, “Substituted 4-phenylpiperidines, their preparation and use” (THE TRUSTEES OF COLUMBIA UNIVERSITY IN THE CITY OF NEW YORK, priority 2014, dated 2017).

What was measured:
serum RBP4 and retinol = settings: in vivo; cited from earlier work
RBP4-TTR interaction = RBP4-TTR interaction (Homo sapiens (Human), UniProt P02753); test: TR-FRET (HTRF) assay for retinol-induced RBP4-TTR interaction; type: biochemical; settings: in the presence of 1 μM retinol; read-out: HTRF assay for antagonists of RBP4-TTR interaction: IC50
Method: Binding of a desired RBP4 antagonist displaces retinol and induces hindrance for RBP4-TTR interaction resulting in the decreased FRET signal (FIG. 7). Bacterially expressed MBP-RBP4 and untagged TTR were used in this assay. […] Following cell lysis, recombinant RBP4 was purified from the soluble fraction using the ACTA FPLC system (GE Healthcare) equipped with the 5-ml the MBP Trap HP column. Human untagged TTR was purchased from Calbiochem. […] HTRF assay was performed in white low volume 384 well plates (Greiner-Bio) in a final assay volume of 16 μl per well. The reaction buffer contained 10 mM Tris-HCl pH 7.5, 1 mM DTT, 0.05% NP-40, 0.05% Prionex, 6% glycerol, and 400 mM KF. […] Titration of test compounds in this assay was conducted in the presence of 1 μM retinol. All reactions were assembled in the dark under dim red light and incubated overnight at +4° C. wrapped in aluminum foil. TR-FRET signal was measured in the SpectraMax M5e Multimode Plate Reader (Molecular Device). […] The TR-FRET signal was expressed as the ratio of fluorescence intensity: Flu665/Flu620×10,000.

For `CC1=C(/C=C/C(C)=C/C=C/C(C)=C/C(=O)Nc2ccc(O)cc2)C(C)(C)CCC1` [fenretinide, N-(4-hydroxy-phenyl)retinamide], the “serum RBP4 and retinol” value (serum RBP4 and retinol) is listed as “reduce serum RBP4 and retinol”.

Molecule `COCCN1CCc2c(C(=O)N3CCC(c4cccc(F)c4C(F)(F)F)CC3)n[nH]c2C1` [Compound 77, (4-(3-Fluoro-2-(trifluoromethyl)phenyl)piperidin-1-yl)(6-(2-methoxyethyl)-4,5,6,7-tetrahydro-3aH-pyrazolo[3,4-c]pyridin-3-yl)methanone] has an IC50 (RBP4-TTR interaction) of 1.62 nM.
